Experimental data as given in ChEMBL document CHEMBL6103626, “Structure-Based Design of New LSD1/EGFRL858R/T790M Dual Inhibitors for Treating EGFR Mutant NSCLC Cancers” (J Med Chem, 2025).

How the values were obtained:
[1] = target: T1, LSD1/CoREST complex (Homo sapiens, UniProt O60341); test: Inhibition of full-length recombinant LSD1 (123 to 852 residues)(unknown origin)/CoREST (305 to 482 residues)(unknown origin) extracted from Escherichia coli using H3K4me2 as substrate preincubated for 5 mins followed by substrate addition measured after 30 mins by HRP/Amplex Red based fluorescence assay; type: protein-complex assay
[2] = target: T1, LSD1/CoREST complex; test: Non-competitive inhibition of LSD1/CoREST (unknown origin) using H3K4me2 as substrate incubated for 0.5 hrs by ELISA; type: protein-complex assay
[3] = system: PC-9; test: Antiproliferative activity against human PC-9 cells expressing EGFR del19 mutant measured after 72 hrs by SRB assay; conditions: PC-9, 72 h
[4] = system: A-431; test: Antiproliferative activity against human A-431 cells expressing wild-type EGFR measured after 72 hrs by SRB assay; conditions: A-431, 72 h
[5] = Antiproliferative activity against human PC9 Gefitinib-resistant (GR) cells measured after 72 hrs by SRB assay; conditions: PC9 Gefitinib-resistant (GR) cell
[6] = Antiproliferative activity against human PC9-OR cells measured after 72 hrs by SRB assay
[7] = system: Osimertinib-resistant NCI-H1975 cell; test: Antiproliferative activity against human Osimertinib-resistant NCI-H1975 cells measured after 72 hrs by SRB assay
[8] = Tmax in Sprague-Dawley rat at 40 mg/kg, po measured for 24 hrs by LC-MS/MS analysis; type: ADME, organism-based; conditions: in vivo
[9] = Cmax in Sprague-Dawley rat at 40 mg/kg, po measured for 24 hrs by LC-MS/MS analysis; type: ADME, organism-based; conditions: in vivo
[10] = Half life in Sprague-Dawley rat at 40 mg/kg, po measured for 24 hrs by LC-MS/MS analysis; type: ADME, organism-based; conditions: in vivo
[11] = AUClast in Sprague-Dawley rat at 40 mg/kg, po measured for 24 hrs by LC-MS/MS analysis; type: ADME, organism-based; conditions: in vivo
[12] = AUC (infinity) in Sprague-Dawley rat at 40 mg/kg, po measured for 24 hrs by LC-MS/MS analysis; type: ADME, organism-based; conditions: in vivo
[13] = MRTlast in Sprague-Dawley rat at 40 mg/kg, po measured for 24 hrs by LC-MS/MS analysis; type: ADME, organism-based; conditions: in vivo
[14] = MRT (infinity) in Sprague-Dawley rat at 40 mg/kg, po measured for 24 hrs by LC-MS/MS analysis; type: ADME, organism-based; conditions: in vivo
[15] = Oral bioavailability in Sprague-Dawley rat at 40 mg/kg measured for 24 hrs by LC-MS/MS analysis; type: ADME, organism-based; conditions: in vivo
[16] = Clearance in Sprague-Dawley rat at 10 mg/kg, iv measured for 24 hrs by LC-MS/MS analysis; type: ADME, organism-based; conditions: in vivo
[17] = Volume of distribution at steady state in Sprague-Dawley rat at 10 mg/kg, iv measured for 24 hrs by LC-MS/MS analysis; type: ADME, organism-based; conditions: in vivo, read-out: Vdss
[18] = Half life in Sprague-Dawley rat at 10 mg/kg, iv measured for 24 hrs by LC-MS/MS analysis; type: ADME, organism-based; conditions: in vivo
[19] = AUClast in Sprague-Dawley rat at 10 mg/kg, iv measured for 24 hrs by LC-MS/MS analysis; type: ADME, organism-based; conditions: in vivo
[20] = AUC (infinity) in Sprague-Dawley rat at 10 mg/kg, iv measured for 24 hrs by LC-MS/MS analysis; type: ADME, organism-based; conditions: in vivo
[21] = MRTlast in Sprague-Dawley rat at 10 mg/kg, iv measured for 24 hrs by LC-MS/MS analysis; type: ADME, organism-based; conditions: in vivo
[22] = MRT (infinity) in Sprague-Dawley rat at 10 mg/kg, iv measured for 24 hrs by LC-MS/MS analysis; type: ADME, organism-based; conditions: in vivo
[23] = system: NCI-H1975; test: Antitumor activity against human NCI-H1975 cells xenografted in athymic nude BALB/c mouse at 3 mg/kg, po daily for 27 days relative to control; type: functional; conditions: NCI-H1975, 648 h, time 27 day, read-out: TGI
[24] = Toxicity in athymic nude BALB/c mouse xenografted with human NCI-H1975 cells assessed as body weight loss at 3 mg/kg, po daily for 27 days; type: organism-based; conditions: in vivo, 648 h, time 27 day
[25] = Toxicity in athymic nude BALB/c mouse xenografted with human NCI-H1975 cells assessed as drug tolerance at 3 mg/kg, po daily for 27 days; type: organism-based; conditions: in vivo, 648 h, time 27 day
[26] = cells; conditions: Homo sapiens, NCI-H1975, 72 h
[27] = target: Epidermal growth factor receptor (Homo sapiens, UniProt P00533); test: Inhibition of wild-type EGFR (unknown origin) using Glu/Tyr as substrate incubated for 1 hr by ELISA
Chain of Epidermal growth factor receptor (Homo sapiens, UniProt P00533) (P00533 whole entry): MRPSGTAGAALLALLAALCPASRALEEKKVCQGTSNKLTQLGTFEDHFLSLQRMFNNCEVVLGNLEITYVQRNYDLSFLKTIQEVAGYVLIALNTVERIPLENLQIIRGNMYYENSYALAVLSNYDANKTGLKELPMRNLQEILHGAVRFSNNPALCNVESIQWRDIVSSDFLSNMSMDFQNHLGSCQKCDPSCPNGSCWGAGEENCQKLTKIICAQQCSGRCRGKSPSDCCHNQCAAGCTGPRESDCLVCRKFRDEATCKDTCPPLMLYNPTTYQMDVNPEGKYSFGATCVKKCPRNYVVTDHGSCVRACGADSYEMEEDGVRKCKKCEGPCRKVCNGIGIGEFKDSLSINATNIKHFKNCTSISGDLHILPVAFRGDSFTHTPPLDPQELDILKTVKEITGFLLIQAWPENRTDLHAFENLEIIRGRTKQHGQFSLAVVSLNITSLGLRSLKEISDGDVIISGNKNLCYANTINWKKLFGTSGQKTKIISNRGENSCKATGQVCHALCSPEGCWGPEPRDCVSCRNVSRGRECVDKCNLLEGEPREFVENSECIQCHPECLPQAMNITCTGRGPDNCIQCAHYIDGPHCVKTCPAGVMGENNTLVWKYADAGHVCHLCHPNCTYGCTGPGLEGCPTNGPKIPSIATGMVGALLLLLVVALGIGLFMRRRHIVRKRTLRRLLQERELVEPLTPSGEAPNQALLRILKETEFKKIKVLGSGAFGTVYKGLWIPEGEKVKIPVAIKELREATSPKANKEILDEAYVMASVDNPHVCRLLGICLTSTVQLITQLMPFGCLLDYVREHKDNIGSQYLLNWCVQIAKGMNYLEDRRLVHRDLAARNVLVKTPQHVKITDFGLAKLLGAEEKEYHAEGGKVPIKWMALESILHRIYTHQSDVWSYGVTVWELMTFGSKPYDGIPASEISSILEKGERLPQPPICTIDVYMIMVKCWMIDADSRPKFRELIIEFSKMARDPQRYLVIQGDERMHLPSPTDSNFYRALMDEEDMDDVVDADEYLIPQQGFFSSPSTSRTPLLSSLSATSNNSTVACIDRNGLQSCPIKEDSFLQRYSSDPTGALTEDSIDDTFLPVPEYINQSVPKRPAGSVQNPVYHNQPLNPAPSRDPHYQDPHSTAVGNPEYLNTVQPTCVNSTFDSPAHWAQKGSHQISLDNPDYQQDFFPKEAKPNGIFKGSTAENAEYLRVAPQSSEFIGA

[28] = target: Epidermal growth factor receptor (Homo sapiens, UniProt P00533, L858R/T790M); test: Inhibition of EGFR L858R/T790M mutant (unknown origin) using Glu/Tyr as substrate incubated for 1 hr by ELISA
Chain of Epidermal growth factor receptor (Homo sapiens, UniProt P00533, L858R/T790M) (P00533 25-1210 T790M/L858R limits assumed): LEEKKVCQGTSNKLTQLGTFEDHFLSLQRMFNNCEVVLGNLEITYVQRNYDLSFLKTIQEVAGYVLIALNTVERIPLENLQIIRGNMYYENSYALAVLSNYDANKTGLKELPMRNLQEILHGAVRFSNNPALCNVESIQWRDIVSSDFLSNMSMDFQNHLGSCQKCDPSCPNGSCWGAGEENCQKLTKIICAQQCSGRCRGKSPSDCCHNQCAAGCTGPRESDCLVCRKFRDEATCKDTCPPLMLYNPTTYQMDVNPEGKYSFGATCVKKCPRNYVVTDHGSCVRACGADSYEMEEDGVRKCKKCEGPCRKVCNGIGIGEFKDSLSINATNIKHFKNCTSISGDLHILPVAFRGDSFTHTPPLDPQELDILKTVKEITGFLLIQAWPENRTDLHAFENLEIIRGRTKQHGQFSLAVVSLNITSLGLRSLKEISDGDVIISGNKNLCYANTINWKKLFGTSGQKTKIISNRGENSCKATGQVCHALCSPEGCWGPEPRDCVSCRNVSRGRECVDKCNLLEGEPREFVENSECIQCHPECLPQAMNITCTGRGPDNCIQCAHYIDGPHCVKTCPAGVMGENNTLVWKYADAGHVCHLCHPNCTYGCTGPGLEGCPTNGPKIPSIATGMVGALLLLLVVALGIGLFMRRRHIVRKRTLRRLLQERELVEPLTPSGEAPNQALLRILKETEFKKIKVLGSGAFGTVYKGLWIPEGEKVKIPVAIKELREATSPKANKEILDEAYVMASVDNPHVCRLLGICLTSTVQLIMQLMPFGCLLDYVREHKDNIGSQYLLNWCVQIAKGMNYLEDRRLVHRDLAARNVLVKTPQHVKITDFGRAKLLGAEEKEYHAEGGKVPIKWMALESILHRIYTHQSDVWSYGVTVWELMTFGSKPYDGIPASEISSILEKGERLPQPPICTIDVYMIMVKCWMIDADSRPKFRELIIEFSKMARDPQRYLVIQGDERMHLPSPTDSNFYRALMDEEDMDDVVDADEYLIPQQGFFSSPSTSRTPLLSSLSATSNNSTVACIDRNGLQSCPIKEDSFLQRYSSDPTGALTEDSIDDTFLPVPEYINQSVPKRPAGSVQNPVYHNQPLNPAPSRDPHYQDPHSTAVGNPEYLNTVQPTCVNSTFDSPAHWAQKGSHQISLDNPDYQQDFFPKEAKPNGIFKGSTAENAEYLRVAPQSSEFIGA

Row | IC50 [1] | Ki [2] | IC50 [3] | IC50 [4] | IC50 [7] | Tmax [8] | Cmax [9] | AUC(0-t) at 24 h [11] | MRT last at 24 h [13] | bioavailability [15] | clearance [16] | Vd [17] | half-life [18] | AUC(0-t) at 24 h [19] | AUC(0-inf) [20] | MRT last at 24 h [21] | MRT inf [22] | SMILES | IC50 [5] | IC50 [6] | inhibition in vivo at 3 mg/kg [23] | further results
1 | 0.6 µM | 257 nM | 6.81 µM | 2460 nM | 8.93 µM | 5 h | 724 ng/mL | 10400 ng·h/mL | 6.76 h | 65.1% | 39.8 mL/min/kg | 15.5 L/kg | 364 min | 4000 ng·h/mL | 4220 ng·h/mL | 5.08 h | 6.51 h | [2H]C([2H])([2H])n1cc(-c2ccnc(Nc3cc(NC(=O)C=C)c(N4CC[C@@H](N(C)C)C4)cc3OC)n2)c2ccccc21 | 5.35 µM | 6.73 µM | 60.4% | half-life [10]: 374 min; AUC(0-inf) [12]: 9720 ng·h/mL; MRT inf [14]: 8.14 h; Activity [24]: Non-toxic; Activity [25]: Non-toxic; IC50 [26]: 1750 nM
2 | 8 µM | 2340 nM | 0.93 µM | 290 nM | 1.6 µM | 6 h | 568 ng/mL | 8840 ng·h/mL | 9.37 h | 59.6% | 33.8 mL/min/kg | 32.3 L/kg | 780 min | 3740 ng·h/mL | 4940 ng·h/mL | 7.17 h | 16 h | [2H]C([2H])([2H])n1cc(-c2ccnc(Nc3cc(NC(=O)C=C)c(N4CCC(C)(N)CC4)cc3OC)n2)c2ccccc21 | 1.37 µM | 0.85 µM | 51.3% | IC50 [27]: 788 nM; IC50 [28]: 6.8 nM; Activity [24]: Non-toxic; Activity [25]: Non-toxic; IC50 [26]: 70 nM
